Assay results as given in US20260347373A1, “HETEROCYCLIC COMPOUNDS, COMPOSITIONS THEREOF, AND METHODS OF TREATMENT THEREWITH” (BeOne Medicines I GmbH, priority 2023, published 2026).
Like-named read-outs stand apart in the source and are kept apart here.

Legend:
[1] = molecular target: WT KRAS (Homo sapiens, UniProt P01116); assay: KRAS WT Probe Displacement Assay (TR-FRET, GDP-loaded); type: binding
Description: (§1) The synthetic routes of probe 1 and 2, which have been disclosed in PCT/CN2022/070676, are hereby incorporated herein.

[2] = molecular target: KRAS G12D (Homo sapiens, UniProt P01116, G12D); assay: KRAS G12D Probe Displacement Assay (TR-FRET, GDP-loaded); type: binding
Chain of KRAS G12D (P01116 1-188 isoform P01116-2 G12D): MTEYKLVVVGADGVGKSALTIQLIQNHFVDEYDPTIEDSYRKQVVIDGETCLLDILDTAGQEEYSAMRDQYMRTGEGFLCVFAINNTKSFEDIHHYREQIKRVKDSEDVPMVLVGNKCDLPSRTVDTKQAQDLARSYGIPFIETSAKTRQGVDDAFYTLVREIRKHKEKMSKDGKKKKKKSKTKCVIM
Description: as §1

[3] = KRAS WT, read-out: KRAS^WT Probe Displacement Assay IC50
[4] = KRAS G12D, read-out: KRAS^G12D Probe Displacement Assay IC50

Chain of WT KRAS (P01116 1-188 isoform P01116-2): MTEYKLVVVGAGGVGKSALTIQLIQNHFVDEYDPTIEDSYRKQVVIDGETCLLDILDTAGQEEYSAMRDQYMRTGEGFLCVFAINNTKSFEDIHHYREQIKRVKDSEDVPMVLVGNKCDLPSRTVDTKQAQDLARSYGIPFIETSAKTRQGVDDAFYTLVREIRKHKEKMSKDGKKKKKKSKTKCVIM

SMILES | IC50 [1, 3] [nM] | IC50 [2, 4] [nM] | IC50 ([1]; KRAS^WT Probe Displacement Assay IC50, KRAS WT) [nM] | IC50 ([2]; KRAS^G12D Probe Displacement Assay IC50, KRAS G12D) [nM]
Cc1cc(N)cc(-c2nc3c4c(nc(OCC5(CN6CCC7(COC7)C6)CC5)nc4c2F)N2C[C@H]4CC[C@H](N4)[C@H]2CCO3)c1C(F)(F)F [Example 189, 3-((6aR,7S,10R)-13-((1-((2-oxa-6-azaspiro[3.4]octan-6-yl)methyl)cyclopropyl)methoxy)-1-fluoro-5,6,6a,7,8,9,10,11-octahydro-4-oxa-3,11a,12,14,15-pentaaza[7,10]methanocyclohepta[4,5]cycloocta[1,2,3-de]naphthalen-2-yl)-5-methyl-4-(trifluoromethyl)aniline] | 3 to 1000 | < 0.3 |  | 
Cc1cc(N)cc(-c2nc3c4c(nc(OCC5(CN6CCC(C(F)(F)F)CC6)CC5)nc4c2F)N2C[C@H]4CC[C@H](N4)[C@H]2CCO3)c1C(F)(F)F [Example 113, 3-((6aR,7S,10R)-1-fluoro-13-((1-((4-(trifluoromethyl)piperidin-1-yl)methyl)cyclopropyl)methoxy)-5,6,6a,7,8,9,10,11-octahydro-4-oxa-3,11a,12,14,15-pentaaza-7,10-methanocyclohepta [4,5]cycloocta [1,2,3-de]naphthalen-2-yl)-5-methyl-4-(trifluoromethyl) aniline] |  |  | 0.3 to 3 | < 0.3
[2H]C([2H])([2H])c1cc(N)cc(-c2nc3c4c(nc(OCC56C[C@@H](F)CN5C[C@H](F)C6)nc4c2F)N2C[C@H]4CC[C@H](N4)[C@H]2CCO3)c1C(F)(F)F [Example 73, 3-((6aR,7S,10R)-13-(((2R,6R)-2,6-difluorotetrahydro-1H-pyrrolizin-7a(5H)-yl)methoxy)-1-fluoro-5,6,6a,7,8,9,10,11-octahydro-4-oxa-3,11a,12,14,15-pentaaza-7,10-methanocyclohepta[4,5]cycloocta [1,2,3-de]naphthalen-2-yl)-5-(methyl-d3)-4-(trifluoromethyl)aniline] | 3 to 1000 | < 0.3 |  | 
Cc1cc(N)cc(-c2nc3c4c(nc(OCC5(C(C)N(C)C)CC5)nc4c2F)N2C[C@H]4CC[C@H](N4)[C@H]2CCO3)c1C(F)(F)F (stereo partly drawn) [Example 135, 3-((6aR,7S,10R)-13-((1-(1-(dimethylamino)ethyl)cyclopropyl)methoxy)-1-fluoro-5,6,6a,7,8,9,10,11-octahydro-4-oxa-3,11a,12,14,15-pentaaza-7,10-methanocyclohepta[4,5]cycloocta [1,2,3-de]naphthalen-2-yl)-5-methyl-4-(trifluoromethyl)aniline] | 3 to 1000 | < 0.3 |  | 
Cc1cc(N)cc(-c2nc3c4c(nc(OCC5(CN(C)C)CC5)nc4c2F)N2C[C@H]4CC[C@H](N4)[C@H]2CCO3)c1C(F)(F)F [Example 56, 3-((6aR,7S,10R)-13-((1-((dimethylamino)methyl)cyclopropyl)methoxy)-1-fluoro-5,6,6a,7,8,9,10,11-octahydro-4-oxa-3,11a,12,14,15-pentaaza-7,10-methanocyclohepta[4,5]cycloocta [1,2,3-de]naphthalen-2-yl)-5-methyl-4-(trifluoromethyl)aniline] | 3 to 1000 | < 0.3 |  | 
COC[C@H]1[C@@H]2C[C@@H]2CN1CC1(COc2nc3c4c(nc(-c5cc(N)cc(C)c5C(F)(F)F)c(F)c4n2)OCC[C@@H]2[C@@H]4CC[C@H](CN32)N4)CC1 [Example 181, 3-((6aR,7S,10R)-1-fluoro-13-((1-(((1R,2R,5S)-2-(methoxymethyl)-3-azabicyclo[3.1.0]hexan-3-yl)methyl)cyclopropyl)methoxy)-5,6,6a,7,8,9,10,11-octahydro-4-oxa-3,11a,12,14,15-pentaaza-7,10-methanocyclohepta[4,5]cycloocta[1,2,3-de]naphthalen-2-yl)-5-methyl-4-(trifluoromethyl)aniline] | 3 to 1000 | < 0.3 |  | 
Cc1cc(N)cc(-c2nc3c4c(nc(OCC5(CN6CCC6)CC5(F)F)nc4c2F)N2C[C@H]4CC[C@H](N4)[C@H]2CCO3)c1C(F)(F)F (single isomer, unassigned) [Example 57] | 3 to 1000 | 0.3 to 3 |  | 
C[C@H](Oc1nc2c3c(nc(-c4cc(N)cc(Cl)c4C(F)(F)F)c(F)c3n1)OCC[C@@H]1[C@@H]3CC[C@H](CN21)N3)[C@@H]1CCCN1C [Example 140, 3-chloro-5-((6aR,7S,10R)-1-fluoro-13-((S)-1-((S)-1-methylpyrrolidin-2-yl)ethoxy)-5,6,6a,7,8,9,10,11-octahydro-4-oxa-3,11a,12,14,15-pentaaza-7,10-methano-cyclohepta[4,5]cycloocta [1,2,3-de]naphthalen-2-yl)-4-(trifluoromethyl)aniline] | 3 to 1000 | < 0.3 |  | 
Cc1cc(N)cc(-c2nc3c4c(nc(O[C@H]5COCC[C@@H]5N(C)C)nc4c2F)N2C[C@H]4CC[C@H](N4)[C@H]2CCO3)c1C(F)(F)F [Example 8, (3R,4S)-3-(((6aR,7S,10R)-2-(5-amino-3-methyl-2-(trifluoromethyl)phenyl)-1-fluoro-5,6,6a,7,8,9,10,11-octahydro-4-oxa-3,11a,12,14,15-pentaaza-7,10-methanocyclohepta[4,5]cycloocta [1,2,3-de]naphthalen-13-yl)oxy)-N,N-dimethyltetrahydro-2H-pyran-4-amine] | 3 to 1000 | 0.3 to 3 |  | 
C=C1CN2C[C@H](F)C[C@@]2(COc2nc3c4c(nc(-c5cc(N)cc(Cl)c5C(F)(F)F)c(F)c4n2)OCC[C@@H]2[C@@H]4CC[C@H](CN32)N4)C1 [Example 209, 3-chloro-5-((6aR,7S,10R)-1-fluoro-13-(((2R,7aR)-2-fluoro-6-methylenetetrahydro-1H-pyrrolizin-7a(5H)-yl)methoxy)-5,6,6a,7,8,9,10,11-octahydro-4-oxa-3,11a,12,14,15-pentaaza-7,10-methanocyclohepta[4,5]cycloocta[1,2,3-de]naphthalene-2-yl)-4-(trifluoromethyl)aniline] | 3 to 1000 | < 0.3 |  | 
Cc1cc(N)cc(-c2nc3c4c(nc(O[C@@H](C)[C@@H]5C[C@@H](F)CN5C)nc4c2F)N2C[C@H]4CC[C@H](N4)[C@H]2CCO3)c1C(F)(F)F [Example 74, 3-((6aR,7S,10R)-1-fluoro-13-((S)-1-((2S,4R)-4-fluoro-1-methylpyrrolidin-2-yl)ethoxy)-5,6,6a,7,8,9,10,11-octahydro-4-oxa-3,11a,12,14,15-pentaaza-7,10methanocyclohepta[4,5]cycloocta [1,2,3-de]naphthalen-2-yl)-5-methyl-4-(trifluoromethyl)aniline] | 3 to 1000 | < 0.3 |  | 
Cc1cc(N)cc(-c2nc3c4c(nc(OCC5(CN6CCC(C)(C#N)C6)CC5)nc4c2F)N2C[C@H]4CC[C@H](N4)[C@H]2CCO3)c1C(F)(F)F (stereo partly drawn) [Example 167, 1-((1-((((6aR,7S,10R)-2-(5-amino-3-methyl-2-(trifluoromethyl)phenyl)-1-fluoro-5,6,6a,7,8,9,10,11-octahydro-4-oxa-3,11a,12,14,15-pentaaza-7,10-methanocyclohepta[4,5]cycloocta[1,2,3-de]naphthalen-13-yl)oxy)methyl)cyclopropyl)methyl)-3-methylpyrrolidine-3-carbonitrile] | 0.3 to 3 | < 0.3 |  | 
Cc1cc(N)cc(-c2nc3c4c(nc(OC[C@]5(CN(C)C)CC5(F)F)nc4c2F)N2C[C@H]4CC[C@H](N4)[C@H]2CC(C)O3)c1C(F)(F)F (single isomer, unassigned) [Example 248] | 0.3 to 3 | < 0.3 |  | 
Cc1cc(N)cc(-c2nc3c4c(nc(OCC5(CN6CCOC[C@H]6C)CC5)nc4c2F)N2C[C@H]4CC[C@H](N4)[C@H]2CCO3)c1C(F)(F)F [Example 163, 3-((6aR,7S,10R)-1-fluoro-13-((1-(((R)-3-methylmorpholino)methyl)cyclopropyl)methoxy)-5,6,6a,7,8,9,10,11-octahydro-4-oxa-3,11a,12,14,15-pentaaza-7,10-methanocyclohepta[4,5]cycloocta[1,2,3-de]naphthalen-2-yl)-5-methyl-4-(trifluoromethyl)aniline] | 3 to 1000 | < 0.3 |  | 
C=C1CN2C[C@H](F)C[C@]2(COc2nc3c4c(nc(-c5cc(N)cc(C)c5C(F)(F)F)c(F)c4n2)OCC[C@@H]2[C@@H]4CC[C@H](CN32)N4)C1 [Example 210, 3-((6aR,7S,10R)-1-fluoro-13-(((2R,7aS)-2-fluoro-6-methylenetetrahydro-1H-pyrrolizin-7a(5H)-yl)methoxy)-5,6,6a,7,8,9,10,11-octahydro-4-oxa-3,11a,12,14,15-pentaaza-7,10-methanocyclohepta[4,5]cycloocta[1,2,3-de]naphthalen-2-yl)-5-methyl-4-(trifluoromethyl)aniline] | 3 to 1000 | < 0.3 |  | 
Cc1cc(N)cc(-c2nc3c4c(nc(OCC5(CN6CCOC[C@@H]6C)CC5)nc4c2F)N2C[C@H]4CC[C@H](N4)[C@H]2CCO3)c1C(F)(F)F [Example 164, 3-((6aR,7S,10R)-1-fluoro-13-((1-(((S)-3-methylmorpholino)methyl)cyclopropyl)methoxy)-5,6,6a,7,8,9,10,11-octahydro-4-oxa-3,11a,12,14,15-pentaaza-7,10-methanocyclohepta[4,5]cycloocta[1,2,3-de]naphthalen-2-yl)-5-methyl-4-(trifluoromethyl)aniline] | 3 to 1000 | < 0.3 |  | 
Cc1cc(N)cc(-c2nc3c4c(nc(OCC5(CN6CC=C[C@H]6C)CC5)nc4c2F)N2C[C@H]4CC[C@H](N4)[C@H]2CCO3)c1C(F)(F)F [Example 160, 3-((6aR,7S,10R)-1-fluoro-13-((1-(((R)-2-methyl-2,5-dihydro-1H-pyrrol-1-yl)methyl)cyclopropyl)methoxy)-5,6,6a,7,8,9,10,11-octahydro-4-oxa-3,11a,12,14,15-pentaaza-7,10-methanocyclohepta[4,5]cycloocta[1,2,3-de]naphthalen-2-yl)-5-methyl-4-(trifluoromethyl)aniline] | 3 to 1000 | < 0.3 |  | 
